{"source": "patent US10772832B2", "about": "“Dry powder formulations for inhalation” (OTITOPIC INC., priority 2015, dated 2020)", "key": {"[1]": {"assay": "Light microscopy particle size", "format": "physicochemical", "excerpt": "Rhodine 3040 US obtained from Rhodia Inc. was used for all experiments. Particles were dispersed in 0.1% w/w docusate sodium in water and observed under a light microscope to confirm particle size. Particles ranging from 66 to 280 μm were observed confirming data from certificate of analysis, though observed “rounding” of the particulates is indicative of partial dissolution in the aqueous dispersant.\nPhotomicrographs of the pre- and post-micronized uncoated particles were taken by dispersing them in a solution of 0.1% w/w docusate sodium in purified water USP, and using a digital imaging light microscope (Olympus BX51 with Clemex ST-2000 controller) at 400-times or 1000-times magnification."}, "[2]": {"assay": "Anti-solvent suspension evaluation (filtration, residue weighing)", "format": "physicochemical", "conditions": "5% w/w suspension, room temperature", "protocol": "After considering a number of factors in the end it was determined that only n-heptane and toluene fulfilled all the requirements, and therefore these were selected for further evaluation. Suspensions of acetylsalicylic acid at 5% w/w were prepared with the various anti-solvents, by charging the required amount of anti-solvent, charging the required amount of acetylsalicylic acid, and then stirring until a homogeneous suspension was obtained. The suspensions were qualitatively evaluated at room temperature and then filtered using a 0.45 μm membrane, which was then placed in an oven and dried at 60° C. until the solvent had completely evaporated. A quantitative analysis was performed on the residue that remained in the membrane by weighing the membrane before and after the test."}}, "data": [{"smiles": "CC(=O)Oc1ccccc1C(=O)O", "note": "[acetylsalicylic acid]", "values": [{"measurement": "Reduction in the starting particle size by micronization", "setting": "[1]", "result": "approximately 70 fold"}, {"measurement": "Behavior towards n-heptane", "setting": "[2]", "result": "phobic behavior"}, {"measurement": "Solubility in toluene", "setting": "[2]", "result": "partially soluble"}]}]}
